Experimental data from patent US20140045873A1, “NOVEL MICROBIOCIDES” (SYNGENTA PARTICIPATIONS AG, priority 2010, published 2014).
Like-named read-outs stand apart in the source and are kept apart here.

Experiments:
[1] = tested on: Botryotinia fuckeliana (Botrytis cinerea); assay: Botryotinia fuckeliana (Botrytis cinerea) / liquid culture (gray mould); format: cell-based; details: Vogels broth, 24° C., 3-4 days after application, read-out: control of Botryotinia fuckeliana (inhibition of growth, photometric)
Description: Botryotinia Fuckeliana (Botrytis cinerea)/Liquid Culture (Gray Mould): Conidia of the fungus from cryogenic storage were directly mixed into nutrient broth (Vogels broth). […].45

[2] = tested on: Glomerella lagenarium (Colletotrichum lagenarium); assay: Glomerella lagenarium (Colletotrichum lagenarium) / liquid culture (anthracnose); format: cell-based; details: Colletotrichum orbiculare, read-out: control of Glomerella lagenarium (inhibition of growth, photometric)
[3] = tested on: Mycosphaerella arachidis (Cercospora arachidicola); assay: Mycosphaerella arachidis (Cercospora arachidicola) / liquid culture (early leaf spot); format: cell-based; details: read-out: control of Mycosphaerella arachidis (inhibition of growth, photometric)
[4] = tested on: Monographella nivalis (Microdochium nivale); assay: Monographella nivalis (Microdochium nivale) / liquid culture (foot rot cereals); format: cell-based; details: PDB, 24° C., 4-5 days after application, read-out: control of Monographella nivalis (inhibition of growth, photometric)
Pyrenophora teres = details: in Hordeum vulgare, foliar, read-out: control of Pyrenophora teres (disease control compared to untreated)
[5] = tested on: Puccinia recondita f. sp. tritici; details: in Triticum aestivum, foliar, read-out: control of Puccinia recondita f. sp. tritici (percent disease control compared to untreated)
[6] = tested on: Puccinia recondita f. sp. tritici; details: in Triticum aestivum, foliar, read-out: control of Puccinia recondita f. sp. tritici (percent disease control compared to untreated); remark: listed apart in the source
[7] = tested on: Thanatephorus cucumeris (Rhizoctonia solani); details: read-out: control of Thanatephorus cucumeris (inhibition of growth, photometric)
[8] = tested on: Phaeosphaeria nodorum (Septoria nodorum); details: Parastagonospora nodorum, in Triticum aestivum, foliar, read-out: control of Phaeosphaeria nodorum (percent disease control compared to untreated)
[9] = tested on: Mycosphaerella graminicola (Septoria tritici); assay: Mycosphaerella graminicola (Septoria tritici) / liquid culture (Septoria blotch); format: cell-based; details: Zymoseptoria tritici, read-out: control of Mycosphaerella graminicola (inhibition of growth, photometric)
Gaeumannomyces graminis = Gaeumannomyces graminis / liquid culture (take-all of cereals); format: cell-based; details: read-out: control of Gaeumannomyces graminis (inhibition of growth, photometric)
[10] = 200 ppm, liquid culture, PDB, 24° C., 3-4 days after application
[11] = 200 ppm, liquid culture, PDB, 24° C., 4-5 days after application

C/C(=N\OCCCc1cccc(-c2ccccn2)n1)c1cccc(C)n1 [P.01]
≥ 80%: inhibition at 200 ppm [1] | inhibition at 200 ppm [2, 10] | inhibition at 200 ppm [3, 11] | inhibition at 200 ppm [4] | pest or weed control at 200 ppm (Pyrenophora teres) | pest or weed control at 200 ppm [5] | pest or weed control at 200 ppm [6] | inhibition at 200 ppm [7] | pest or weed control at 200 ppm [8]

C/C(=N\OCCCc1cccc(-c2nccc(C)n2)n1)c1cccc(C)n1 [P.02]
≥ 80%: inhibition at 200 ppm [2] | inhibition at 200 ppm [3] | inhibition at 200 ppm [9] | inhibition at 200 ppm (Gaeumannomyces graminis) | pest or weed control at 200 ppm (Pyrenophora teres) | pest or weed control at 200 ppm [5] | pest or weed control at 200 ppm [6] | inhibition at 200 ppm [7] | pest or weed control at 200 ppm [8]

C/C(=N\OCCCc1cccc(-c2ccnc(C)n2)n1)c1cccc(C)n1 [P.03]
≥ 80%: inhibition at 200 ppm [1] | inhibition at 200 ppm [3, 11] | inhibition at 200 ppm [9, 11] | inhibition at 200 ppm (Gaeumannomyces graminis; [11]) | pest or weed control at 200 ppm (Pyrenophora teres) | pest or weed control at 200 ppm [5] | inhibition at 200 ppm [7] | pest or weed control at 200 ppm [8]

C/C(=N\OCCCc1cccc(-c2ncccn2)n1)c1cccc(C)n1 [P.04]
≥ 80%: inhibition at 200 ppm [1] | inhibition at 200 ppm [3, 11] | pest or weed control at 200 ppm [5] | pest or weed control at 200 ppm [6] | inhibition at 200 ppm [7] | pest or weed control at 200 ppm [8]

C/C(=N\OCCCc1cccc(-c2ccncn2)n1)c1cccc(C)n1 [P.06]
≥ 80%: inhibition at 200 ppm [9, 11] | inhibition at 200 ppm (Gaeumannomyces graminis; [11])

C/C(=N\OCCCc1cccc(-c2ccnc(C3CC3)n2)n1)c1cccc(C)n1 [P.07]
≥ 80%: inhibition at 200 ppm [1] | inhibition at 200 ppm [2, 10] | inhibition at 200 ppm [3, 11] | inhibition at 200 ppm [9, 11] | inhibition at 200 ppm (Gaeumannomyces graminis; [11]) | inhibition at 200 ppm [4] | pest or weed control at 200 ppm (Pyrenophora teres) | inhibition at 200 ppm [7] | pest or weed control at 200 ppm [8]

C/C(=N\OCCCc1cccc(-c2ccnc(-c3ccccc3)n2)n1)c1cccc(C)n1 [P.08]
≥ 80%: inhibition at 200 ppm [1] | inhibition at 200 ppm [3, 11] | inhibition at 200 ppm [9, 11] | inhibition at 200 ppm (Gaeumannomyces graminis; [11])

CSc1nccc(-c2cccc(CCCO/N=C(\C)c3cccc(C)n3)n2)n1 [P.09]
≥ 80%: inhibition at 200 ppm [1] | inhibition at 200 ppm [3, 11] | inhibition at 200 ppm [9, 11] | inhibition at 200 ppm (Gaeumannomyces graminis; [11]) | pest or weed control at 200 ppm (Pyrenophora teres) | pest or weed control at 200 ppm [5] | pest or weed control at 200 ppm [8]

C/C(=N\OCCCc1cccc(-c2ccnc(Cc3ccccc3)n2)n1)c1cccc(C)n1 [P.10]
≥ 80%: inhibition at 200 ppm [1] | inhibition at 200 ppm [3, 11] | inhibition at 200 ppm [9, 11] | inhibition at 200 ppm (Gaeumannomyces graminis; [11]) | pest or weed control at 200 ppm (Pyrenophora teres)

C/C(=N\OCCCc1cccc(-c2cc(O)cc(C)n2)n1)c1cccc(C)n1 [P.14, 1-(6-methyl-pyridin-2-yl)-ethanone-O-[3-(4′-hydroxy-6′-methyl-[2,2′]bipyridinyl-6-yl)-propyl]-oxime]
≥ 80%: inhibition at 200 ppm [3, 11] | inhibition at 200 ppm [9, 11] | inhibition at 200 ppm (Gaeumannomyces graminis; [11])

C/C(=N\OCCCc1cccc(-c2cc(OCc3ccccc3)cc(C)n2)n1)c1cccc(C)n1 [P.15]
≥ 80%: inhibition at 200 ppm [1] | inhibition at 200 ppm [2, 10] | inhibition at 200 ppm [3, 11] | inhibition at 200 ppm [9, 11] | inhibition at 200 ppm (Gaeumannomyces graminis; [11]) | inhibition at 200 ppm [4] | pest or weed control at 200 ppm (Pyrenophora teres) | pest or weed control at 200 ppm [5] | pest or weed control at 200 ppm [6] | inhibition at 200 ppm [7] | pest or weed control at 200 ppm [8]

CC(=O)c1ccc(-c2cccc(CCCO/N=C(\C)c3cccc(C)n3)n2)nc1C [P.20]
≥ 80%: inhibition at 200 ppm [3, 11] | inhibition at 200 ppm (Gaeumannomyces graminis; [11]) | pest or weed control at 200 ppm (Pyrenophora teres) | pest or weed control at 200 ppm [8]

CCON=C(C)c1ccc(-c2cccc(CCCO/N=C(\C)c3cccc(C)n3)n2)nc1C [P.23]
≥ 80%: inhibition at 200 ppm [1] | inhibition at 200 ppm [2, 10] | inhibition at 200 ppm [3, 11] | inhibition at 200 ppm [9, 11] | inhibition at 200 ppm (Gaeumannomyces graminis; [11]) | pest or weed control at 200 ppm (Pyrenophora teres) | pest or weed control at 200 ppm [5] | pest or weed control at 200 ppm [6] | pest or weed control at 200 ppm [8]

C#CCOc1cc(C)nc(-c2cccc(CCCO/N=C(\C)c3cccc(C)n3)n2)c1 [P.24]
≥ 80%: inhibition at 200 ppm [1] | inhibition at 200 ppm [3, 11] | inhibition at 200 ppm [9, 11] | inhibition at 200 ppm (Gaeumannomyces graminis; [11]) | inhibition at 200 ppm [4] | pest or weed control at 200 ppm (Pyrenophora teres) | pest or weed control at 200 ppm [5] | pest or weed control at 200 ppm [6] | inhibition at 200 ppm [7] | pest or weed control at 200 ppm [8]

CCc1cc(OC)c(C)c(-c2cccc(CCCO/N=C(\C)c3cccc(C)n3)n2)n1 [P.33]
≥ 80%: inhibition at 200 ppm [1] | inhibition at 200 ppm [3, 11] | inhibition at 200 ppm [9, 11] | pest or weed control at 200 ppm (Pyrenophora teres) | pest or weed control at 200 ppm [5] | pest or weed control at 200 ppm [6] | inhibition at 200 ppm [7] | pest or weed control at 200 ppm [8]

CCOc1cc(CC)nc(-c2cccc(CCCO/N=C(\C)c3cccc(C)n3)n2)c1C [P.34]
≥ 80%: inhibition at 200 ppm [1] | inhibition at 200 ppm [3, 11] | inhibition at 200 ppm [9, 11] | pest or weed control at 200 ppm (Pyrenophora teres) | pest or weed control at 200 ppm [5] | pest or weed control at 200 ppm [6] | inhibition at 200 ppm [7] | pest or weed control at 200 ppm [8]

CCCOc1cc(CC)nc(-c2cccc(CCCO/N=C(\C)c3cccc(C)n3)n2)c1C [P.35]
≥ 80%: inhibition at 200 ppm [1] | inhibition at 200 ppm [2, 10] | inhibition at 200 ppm [3, 11] | inhibition at 200 ppm [9, 11] | pest or weed control at 200 ppm (Pyrenophora teres) | pest or weed control at 200 ppm [5] | pest or weed control at 200 ppm [6] | inhibition at 200 ppm [7] | pest or weed control at 200 ppm [8]

CCc1cc(OC(C)C)c(C)c(-c2cccc(CCCO/N=C(\C)c3cccc(C)n3)n2)n1 [P.36]
≥ 80%: inhibition at 200 ppm [1] | inhibition at 200 ppm [2, 10] | inhibition at 200 ppm [3, 11] | inhibition at 200 ppm [9, 11] | pest or weed control at 200 ppm (Pyrenophora teres) | pest or weed control at 200 ppm [5] | pest or weed control at 200 ppm [6] | inhibition at 200 ppm [7] | pest or weed control at 200 ppm [8]

C=CCOc1cc(CC)nc(-c2cccc(CCCO/N=C(\C)c3cccc(C)n3)n2)c1C [P.37]
≥ 80%: inhibition at 200 ppm [1] | inhibition at 200 ppm [2, 10] | inhibition at 200 ppm [3, 11] | inhibition at 200 ppm [9, 11] | pest or weed control at 200 ppm (Pyrenophora teres) | pest or weed control at 200 ppm [5] | pest or weed control at 200 ppm [6] | inhibition at 200 ppm [7] | pest or weed control at 200 ppm [8]

C#CCOc1cc(CC)nc(-c2cccc(CCCO/N=C(\C)c3cccc(C)n3)n2)c1C [P.38]
≥ 80%: inhibition at 200 ppm [1] | inhibition at 200 ppm [2, 10] | inhibition at 200 ppm [3, 11] | inhibition at 200 ppm [9, 11] | pest or weed control at 200 ppm (Pyrenophora teres) | pest or weed control at 200 ppm [5] | pest or weed control at 200 ppm [6] | inhibition at 200 ppm [7] | pest or weed control at 200 ppm [8]

CCc1cc(Cl)c(C)c(-c2cccc(CCCO/N=C(\C)c3cccc(C)n3)n2)n1 [P.39]
≥ 80%: inhibition at 200 ppm [1] | inhibition at 200 ppm [2, 10] | inhibition at 200 ppm [3, 11] | inhibition at 200 ppm [9, 11] | inhibition at 200 ppm [4] | inhibition at 200 ppm [7] | pest or weed control at 200 ppm [8]

CCc1cc(Br)c(C)c(-c2cccc(CCCO/N=C(\C)c3cccc(C)n3)n2)n1 [P.41]
≥ 80%: inhibition at 200 ppm [1] | inhibition at 200 ppm [2, 10] | inhibition at 200 ppm [3, 11] | inhibition at 200 ppm [9, 11] | inhibition at 200 ppm [4] | pest or weed control at 200 ppm [8]
